Structures are written as SMILES. Like-named read-outs stand apart in the source and are kept apart here. Numbered stars: 1 amine (or outer) side, 2 acyl side, 3 side chain; on linkers, the order of the positions; unused ones are H or OH. Bridge positions count the residues as written; N and C are the ends. Peptide text beside a SMILES is read from it. * marks the point of attachment. C20 diacid = O=C(O)CCCCCCCCCCCCCCCCCCC(=O)*; γGlu = O=C(O)[C@H](CCC(=O)[*:2])N[*:1]; AEEA = NCCOCCOCC(=O)O

Assay [1] has as its target T1, hAMY3R (Homo sapiens, UniProt O60896+P30988).
T1 sequence (P30988 25-474): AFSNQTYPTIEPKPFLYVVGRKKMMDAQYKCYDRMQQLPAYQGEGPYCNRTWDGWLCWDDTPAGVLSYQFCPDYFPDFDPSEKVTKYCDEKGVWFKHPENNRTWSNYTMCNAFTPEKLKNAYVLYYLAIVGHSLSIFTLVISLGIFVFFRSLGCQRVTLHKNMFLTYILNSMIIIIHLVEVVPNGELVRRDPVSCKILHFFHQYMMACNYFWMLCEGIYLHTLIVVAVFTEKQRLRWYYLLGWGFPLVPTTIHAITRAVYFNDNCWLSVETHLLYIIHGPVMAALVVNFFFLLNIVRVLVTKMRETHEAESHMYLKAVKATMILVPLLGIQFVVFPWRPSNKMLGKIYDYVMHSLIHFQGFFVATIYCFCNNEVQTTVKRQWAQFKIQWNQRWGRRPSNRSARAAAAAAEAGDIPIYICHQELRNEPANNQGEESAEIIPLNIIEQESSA
T1 sequence (O60896 24-148 partner): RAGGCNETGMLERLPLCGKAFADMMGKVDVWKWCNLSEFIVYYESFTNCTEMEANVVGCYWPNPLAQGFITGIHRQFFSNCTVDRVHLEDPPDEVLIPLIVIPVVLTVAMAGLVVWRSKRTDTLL
Nature of the assay: cAMP-responsive element luciferase reporter assay, human AMY3R. Type of assay: cell-based. Set-up: expressed in transfected cells. To be noted: for ratio hCTR/hAMY3R: ratio of luciferase EC50 values; for EC50: luciferase (human receptor assay).

Assay [2] concerns the target T1, hAMY3R. Nature of the assay: scintillation proximity binding assay, hAMY3R membranes. Set-up: expressed in transfected cells; host or cells: BHK tk-ts 13, transient co-transfection; membranes for the SPA, whole cells for the species-specific assays. As to conditions: ratio of binding IC50 values. The protocol:
(§1) The apparent binding affinities were determined using a scintillation proximity assay with beads from PerkinElmer and cell membranes containing the AMY3R or CTRs. […] Membranes were harvested and membranes were prepared and kept at −80 °C until use. The assay was performed in a 384-well Optiplate (PerkinElmer). Membranes were mixed with scintillation proximity assay beads in a 1:1 ratio. […] Samples were analyzed on a TopCounter (Packard). The IC50 values were calculated using GraphPad Prism. See Supporting Information S7: SAR Screening Assay Methods (Binding Assays (Human and Rat)) for more information.
(§2) Binding Assays (Human and Rat). Brief descriptions of the methods used to determine binding affinities for SAR analysis are described below. Curves and IC50 values were plotted and calculated in GraphPad Prism using nonlinear regression (one site binding competition analysis), with pIC50 values […]
(§3) values were used to calculate the binding affinity ratios in order to express the selectivity of compounds for the AMY3R versus the CTR.
(§4) CTR Binding Assay. The binding assay was performed using scintillation proximity assay (SPA) beads (RPNQ0001) from PerkinElmer and cell membranes containing either the hCTR or rCTR. BHK […]
(§5) Membranes were prepared in the following way: the cells were rinsed with PBS and incubated with Versene for approximately 5 min before harvesting. The cells were flushed with PBS and the cell-suspension was centrifuged for 5 min at 1000 rpm. Cells were homogenized (Ultra Turrax) in a buffer […]
(§6) containing 20 mM Na-HEPES and 0.1 mM EDTA (pH 7.4, buffer 2). The resulting pellet was re-suspended in buffer 2 and protein concentration was measured (BCA protein assay, Pierce). The homogenate was kept cold during the whole procedure. The membranes were stored at –80 °C until […]
(§7) The binding assay was performed in a 384-well Optiplate (PerkinElmer) in a total volume of 40 μL.
(§8) Membranes were mixed with SPA beads in a 1:1 ratio. […]
(§9) mg/well. Test compounds were dissolved in DMSO and further diluted in assay buffer (50 mM HEPES, pH 7.4, 1 mM CaCl2, 5 mM MgCl2, 0.1% ovalbumin, and 0.02% Tween-20).
(§10) Calcitonin (NEX422 PerkinElmer) was dissolved in assay buffer and added to the Optiplate at a final […]
(§11) prior to centrifugation (1500 rpm, 10 min). Samples were analyzed on TopCounter (Packard).
(§12) AMY3R Binding Assay. The binding assay was performed using SPA beads (RPNQ0001) from PerkinElmer and cell membranes containing either the hAMY3R or rAMY3R. BHK tk-ts 13 cells were […]
(§13) and cultured as described above. Membranes were prepared in the following way: the cells were rinsed with PBS and incubated with Versene for approximately 5 min before harvesting. The cells were flushed with PBS and the cell-suspension was centrifuged for 5 min at 1000 rpm. Cells were homogenized (Ultra Turrax) in a buffer containing 20 mM Na-HEPES and 10 mM EDTA (pH 7.4), and […]
(§14) The resulting pellet was re-suspended, homogenized, and
(§15) 7.4, buffer 2). The resulting pellet was re-suspended in buffer 2 and protein concentration was measured (BCA protein assay, Pierce). The homogenate was kept cold during the whole procedure.
(§16) The membranes were stored at –80 °C until use.
(§17) Membranes were mixed with SPA beads in a 1:1 ratio. The final concentration of SPA beads was 0.05 mg/well. Test compounds were dissolved in DMSO and further diluted in assay buffer (50 mM […]
(§18) rAMY (NEX448 PerkinElmer) was dissolved in assay buffer and added to the Optiplate at a final

The next assay has as its target T2, rAMY3R (Rattus norvegicus, UniProt P32214+Q9JJ73).
T2 sequence (P32214 25-479 isoform P32214-2 limits assumed): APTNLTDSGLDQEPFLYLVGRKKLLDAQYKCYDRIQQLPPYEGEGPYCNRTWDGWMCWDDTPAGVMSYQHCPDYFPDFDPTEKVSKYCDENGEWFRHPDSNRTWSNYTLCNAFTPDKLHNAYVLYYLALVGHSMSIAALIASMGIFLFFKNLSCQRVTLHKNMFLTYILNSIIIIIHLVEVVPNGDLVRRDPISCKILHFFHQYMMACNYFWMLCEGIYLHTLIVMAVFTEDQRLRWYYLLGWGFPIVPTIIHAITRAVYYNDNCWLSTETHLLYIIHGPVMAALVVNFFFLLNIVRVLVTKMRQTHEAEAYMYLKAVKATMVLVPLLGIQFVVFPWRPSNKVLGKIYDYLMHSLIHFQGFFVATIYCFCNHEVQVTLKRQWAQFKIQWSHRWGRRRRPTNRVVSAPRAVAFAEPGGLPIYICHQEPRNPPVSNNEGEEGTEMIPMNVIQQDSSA
T2 sequence (Q9JJ73 23-147 partner): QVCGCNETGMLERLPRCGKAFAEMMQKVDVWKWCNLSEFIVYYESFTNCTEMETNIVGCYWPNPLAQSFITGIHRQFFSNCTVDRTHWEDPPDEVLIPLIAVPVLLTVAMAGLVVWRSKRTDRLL
Nature of the assay: scintillation proximity binding assay, rAMY3R membranes. Further details: expressed in transfected cells; host or cells: BHK tk-ts 13, transient co-transfection (FuGENE 6). As to conditions: for ratio rCTR/rAMY3R: ratio of binding IC50 values. The protocol: as §1, §2, §3, §4, §5, §6, §7, §8, §9, §10, §11, §12, §13, §14, §15, §16, §17, §18

`CC[C@H](C)[C@H](NC(=O)[C@H](C)NC(=O)CNC(=O)[C@H](Cc1ccccc1)NC(=O)[C@H](CC(N)=O)NC(=O)[C@@H]1CCCN1C(=O)[C@H](CO)NC(=O)[C@H](CO)NC(=O)[C@H](Cc1c[nH]cn1)NC(=O)[C@H](CCCNC(=N)N)NC(=O)[C@H](CC(C)C)NC(=O)[C@H](Cc1ccccc1)NC(=O)[C@H](CC(=O)O)NC(=O)[C@H](C)NC(=O)[C@H](CC(C)C)NC(=O)[C@H](CCCNC(=N)N)NC(=O)[C@H](CCC(N)=O)NC(=O)[C@@H](NC(=O)[C@H](C)NC(=O)[C@@H]1CSSC[C@H](NC(=O)[C@@H](N)CCCCNC(=O)CC[C@H](NC(=O)CC[C@H](NC(=O)CCCCCCCCCCCCCCCCCCC(=O)O)C(=O)O)C(=O)O)C(=O)N[C@@H](CC(N)=O)C(=O)N[C@@H]([C@@H](C)O)C(=O)N[C@@H](C)C(=O)N[C@@H]([C@@H](C)O)C(=O)N1)[C@@H](C)O)C(=O)N1CCC[C@H]1C(=O)N[C@@H](CO)C(=O)N[C@@H](CO)C(=O)N[C@H](C(=O)N[C@@H](CC(N)=O)C(=O)N[C@H](C(=O)NCC(=O)N[C@@H](CO)C(=O)N[C@@H](CCCNC(=N)N)C(=O)N[C@H](C(=O)N[C@@H](Cc1ccc(O)cc1)C(N)=O)[C@@H](C)O)C(C)C)[C@@H](C)O` [NN1213]: the “ratio hCTR/hAMY3R” value at hAMY3R [1] (listed as 21) was 29; at hAMY3R [2] it was 74. Moreover, the “ratio rCTR/rAMY3R” value at rAMY3R was found to be 465.

Turning to `CC[C@H](C)[C@H](NC(=O)[C@H](C)NC(=O)CNC(=O)[C@H](Cc1ccccc1)NC(=O)[C@H](CC(N)=O)NC(=O)[C@@H]1CCCN1C(=O)[C@H](CO)NC(=O)[C@H](CO)NC(=O)[C@H](Cc1c[nH]cn1)NC(=O)[C@H](CCCNC(=N)N)NC(=O)[C@H](CC(C)C)NC(=O)[C@H](Cc1ccccc1)NC(=O)[C@H](CC(N)=O)NC(=O)[C@H](C)NC(=O)[C@H](CC(C)C)NC(=O)[C@H](CCCNC(=N)N)NC(=O)[C@H](CCC(N)=O)NC(=O)[C@@H](NC(=O)[C@H](C)NC(=O)[C@@H]1CSSC[C@H](NC(=O)[C@H](CCCCN)NC(=O)COCCOCCNC(=O)CC[C@H](NC(=O)CCCCCCCCCCCCCCCCCCC(=O)O)C(=O)O)C(=O)N[C@@H](CC(N)=O)C(=O)N[C@@H]([C@@H](C)O)C(=O)N[C@@H](C)C(=O)N[C@@H]([C@@H](C)O)C(=O)N1)[C@@H](C)O)C(=O)N1CCC[C@H]1C(=O)N[C@@H](CO)C(=O)N[C@@H](CO)C(=O)N[C@H](C(=O)N[C@@H](CC(N)=O)C(=O)N[C@H](C(=O)NCC(=O)N[C@@H](CO)C(=O)N[C@@H](Cc1c[nH]cn1)C(=O)N[C@H](C(=O)N[C@@H](Cc1ccc(O)cc1)C(N)=O)[C@@H](C)O)C(C)C)[C@@H](C)O` [Peptide 18] ({C20 diacid-γGlu-AEEA}-KCNTATCATQRLANFLRHSSPNFGAIPSSTNVGSHTY-NH2; disulfide 2-7; N-terminus assumed), the “ratio hCTR/hAMY3R” value on hAMY3R [1] and at hAMY3R [2] was 19 each time. For the same compound, the “ratio rCTR/rAMY3R” value on rAMY3R is listed as 57.

As for `CC[C@H](C)[C@H](NC(=O)[C@H](C)NC(=O)CNC(=O)[C@H](Cc1ccccc1)NC(=O)[C@H](CC(N)=O)NC(=O)[C@@H]1CCCN1C(=O)[C@H](CO)NC(=O)[C@H](CO)NC(=O)[C@H](Cc1c[nH]cn1)NC(=O)[C@H](CCCNC(=N)N)NC(=O)[C@H](CC(C)C)NC(=O)[C@H](Cc1ccccc1)NC(=O)[C@H](CCC(=O)O)NC(=O)[C@H](C)NC(=O)[C@H](CC(C)C)NC(=O)[C@H](CCCNC(=N)N)NC(=O)[C@H](CCC(N)=O)NC(=O)[C@@H](NC(=O)[C@H](C)NC(=O)[C@@H]1CSSC[C@H](NC(=O)[C@H](CCCCN)NC(=O)CC[C@H](NC(=O)CCCCCCCCCCCCCCCCCCC(=O)O)C(=O)O)C(=O)N[C@@H](CC(N)=O)C(=O)N[C@@H]([C@@H](C)O)C(=O)N[C@@H](C)C(=O)N[C@@H]([C@@H](C)O)C(=O)N1)[C@@H](C)O)C(=O)N1CCC[C@H]1C(=O)N[C@@H](CO)C(=O)N[C@@H](CO)C(=O)N[C@H](C(=O)N[C@@H](CC(N)=O)C(=O)N[C@H](C(=O)NCC(=O)N1CCC[C@H]1C(=O)N[C@@H](CC(N)=O)C(=O)N[C@H](C(=O)N[C@@H](Cc1ccc(O)cc1)C(N)=O)[C@@H](C)O)C(C)C)[C@@H](C)O` [Peptide 12] ({C20 diacid-γGlu}-KCNTATCATQRLAEFLRHSSPNFGAIPSSTNVGPNTY-NH2; disulfide 2-7), the EC50 at hAMY3R [1] (Tables S12 and S14, read-out: hAMY3R pEC50 (converted)) is 0.0468 nM; on hAMY3R [1] (BHK cells stably expressing hCTR+RAMP3 and CRE-luciferase, 3 h, 37 °C, 10% FBS, read-out: hAMY3R EC50), 0.047 nM. Further, the “ratio hCTR/hAMY3R” value turned out to be 6.7 on hAMY3R [1] and 11 on hAMY3R [2]. In addition, the “rAMY3R pIC50” value at rAMY3R (SPA binding assay, Tables S13 and S15) was 9.75. Further, the “ratio rCTR/rAMY3R” value at rAMY3R was 34.

Values taken from PMC11284788, “NN1213 – A Potent, Long-Acting, and Selective Analog of Human Amylin” (Journal of Medicinal Chemistry, 2024).
